Measured values as given in ChEMBL document CHEMBL1201862, “PubChem BioAssay data set” (2004).
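How tested: cells in 96-well plates exposed to compound for 48 hours at five concentrations. GI50 marks 50% less growth.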 The source made the active and inactive calls. No stated cut-off is given here; in the data, active = GI50 up to about 1.1 µM and inactive = higher.

What was measured:
Test in all cases: NCI tumour cell line growth inhibition, 48 h
[1] = test system: SK-OV-3
[2] = test system: HCT-116
[3] = test system: U-251
[4] = test system: HT-29
[5] = test system: 786-0
[6] = test system: SF-268
[7] = test system: NCI-H226
[8] = test system: CCRF-CEM
[9] = test system: RPMI-8226
[10] = test system: CAKI-1
[11] = test system: HCT-15
[12] = test system: TK-10
[13] = test system: SNB-19
[14] = test system: NCI-H460
[15] = test system: OVCAR-4
[16] = test system: OVCAR-3
[17] = test system: HOP-62
[18] = test system: MDA-MB-231
[19] = test system: OVCAR-8
[20] = test system: SF-295
[21] = test system: BT-549
[22] = test system: SF-539
[23] = test system: UACC-257
[24] = test system: SN12C
[25] = test system: NCI/ADR-RES
[26] = test system: MDA-MB-435
[27] = test system: K562
[28] = test system: UACC-62
[29] = test system: OVCAR-5
[30] = test system: KM12
[31] = test system: SW-620
[32] = test system: MOLT-4
[33] = test system: SK-MEL-2
[34] = test system: Hs-578T
[35] = test system: IGROV-1
[36] = test system: SK-MEL-28
[37] = test system: LOX IMVI
[38] = test system: EKVX
[39] = test system: NCI-H23
[40] = test system: A549
[41] = test system: SK-MEL-5
[42] = test system: PC-3
[43] = test system: Malme-3M
[44] = test system: COLO 205
[45] = test system: SNB-75
[46] = test system: SR
[47] = test system: ACHN
[48] = test system: M14
[49] = test system: UO-31
[50] = test system: HCC 2998
[51] = test system: NCI-H522
[52] = test system: MDA-N

Compound: Cc1cc(C)c(C2CC(O)C(CO)O2)cc1C (configuration not stated)
- GI50 [1]: > 100 µM (inactive)
- GI50 [2]: > 100 µM (inactive)
- GI50 [3]: > 100 µM (inactive)
- GI50 [4]: > 100 µM (inactive)
- GI50 [5]: > 100 µM (inactive)
- GI50 [6]: > 100 µM (inactive)
- GI50 [7]: > 100 µM (inactive)
- GI50 [8]: > 100 µM (inactive)
- GI50 [9]: > 100 µM (inactive)
- GI50 [10]: > 100 µM (inactive)
- GI50 [11]: > 100 µM
- GI50 [12]: > 100 µM (inactive)
- GI50 [13]: > 100 µM (inactive)
- GI50 [14]: > 100 µM (inactive)
- GI50 [15]: > 100 µM (inactive)
- GI50 [16]: > 100 µM (inactive)
- GI50 [17]: > 100 µM (inactive)
- GI50 [18]: > 100 µM (inactive)
- GI50 [19]: > 100 µM (inactive)
- GI50 [20]: > 100 µM (inactive)
- GI50 [21]: > 100 µM (inactive)
- GI50 [22]: > 100 µM (inactive)
- GI50 [23]: > 100 µM (inactive)
- GI50 [24]: > 100 µM (inactive)
- GI50 [25]: 67.5 µM (inactive)
- GI50 [26]: > 100 µM (inactive)
- GI50 [27]: > 100 µM (inactive)
- GI50 [28]: > 100 µM (inactive)
- GI50 [29]: > 100 µM (inactive)
- GI50 [30]: > 100 µM (inactive)
- GI50 [31]: > 100 µM (inactive)
- GI50 [32]: > 100 µM (inactive)
- GI50 [33]: > 100 µM (inactive)
- GI50 [34]: > 100 µM (inactive)
- GI50 [35]: > 100 µM (inactive)
- GI50 [36]: > 100 µM (inactive)
- GI50 [37]: > 100 µM (inactive)
- GI50 [38]: > 100 µM (inactive)
- GI50 [39]: > 100 µM (inactive)
- GI50 [40]: > 100 µM (inactive)
- GI50 [41]: > 100 µM (inactive)
- GI50 [42]: > 100 µM (inactive)
- GI50 [43]: > 100 µM (inactive)
- GI50 [44]: > 10 µM (inactive)
- GI50 [45]: > 100 µM (inactive)
- GI50 [46]: > 100 µM (inactive)
- GI50 [47]: > 100 µM (inactive)
- GI50 [48]: > 100 µM (inactive)
- GI50 [49]: > 100 µM (inactive)
- GI50 [50]: > 100 µM (inactive)
- GI50 [51]: > 100 µM (inactive)
- GI50 [52]: > 100 µM (inactive)
